Test system: rodent lifetime carcinogenesis bioassay, tumor incidence TD50
Assay: carcinogenic potency in animals, long-term in vivo studies, CPDB compilation (AID 1745844)

## O=CNc1nc(-c2ccc([N+](=O)[O-])o2)cs1
hamster, strain Syrian Golden, males, in feed, site: forestomach, lesion: squamous-cell papilloma, dosed 48 weeks, study length 70 weeks
  TD50: 83.8 mg/kg/day
hamster, strain Syrian Golden, males, in feed, site: urinary bladder, lesion: several types, types named in the paper, dosed 48 weeks, study length 70 weeks
  carcinogen call: positive
hamster, strain Syrian Golden, males, in feed, site: urinary bladder, lesion: squamous-cell carcinoma, dosed 48 weeks, study length 70 weeks
  TD50: 54 mg/kg/day
mouse, strain Charles River CD1, females, in feed, site: any site (literature study), lesion: several types, types named in the paper, dosed 36 weeks, study length 68 weeks
  TD50: 18.7 mg/kg/day
mouse, strain Charles River CD1, females, in feed, site: lung, lesion: adenoma, dosed 36 weeks, study length 68 weeks
  TD50: 1120 mg/kg/day
mouse, strain Charles River CD1, females, in feed, site: urinary bladder, lesion: spindle-cell tumor, dosed 36 weeks, study length 68 weeks
  TD50: 128 mg/kg/day
mouse, strain Charles River CD1, females, in feed, site: urinary bladder, lesion: squamous-cell carcinoma, dosed 36 weeks, study length 68 weeks
  TD50: 128 mg/kg/day
mouse, strain Charles River CD1, females, in feed, site: urinary bladder, lesion: transitional-cell carcinoma, dosed 36 weeks, study length 68 weeks
  TD50: 33.3 mg/kg/day
mouse, strain Charles River CD1, males, in feed, site: any site (literature study), lesion: several types, types named in the paper, dosed 40 weeks, study length 77 weeks
  TD50: 21.5 mg/kg/day
mouse, strain Charles River CD1, males, in feed, site: urinary bladder, lesion: spindle-cell tumor, dosed 40 weeks, study length 77 weeks
  TD50: 97.1 mg/kg/day
mouse, strain Charles River CD1, males, in feed, site: urinary bladder, lesion: squamous-cell carcinoma, dosed 40 weeks, study length 77 weeks
  TD50: 250 mg/kg/day
mouse, strain Charles River CD1, males, in feed, site: urinary bladder, lesion: transitional-cell carcinoma, dosed 40 weeks, study length 77 weeks
  TD50: 30.5 mg/kg/day
mouse, strain NMRI, females, by gavage, site: any site (literature study), lesion: benign tumor, dosed 68 weeks, study length 75 weeks
  TD50: 69.4 mg/kg/day
mouse, strain NMRI, females, by gavage, site: any site (literature study), lesion: malignant tumor, dosed 68 weeks, study length 75 weeks
  TD50: 59.5 mg/kg/day
mouse, strain NMRI, females, by gavage, site: forestomach, lesion: papilloma, dosed 68 weeks, study length 75 weeks
  TD50: 164 mg/kg/day
mouse, strain NMRI, females, by gavage, site: forestomach, lesion: squamous-cell carcinoma, dosed 68 weeks, study length 75 weeks
  TD50: 139 mg/kg/day
mouse, strain NMRI, females, by gavage, site: liver, lesion: malignant tumor, dosed 68 weeks, study length 75 weeks
  TD50: 2390 mg/kg/day
mouse, strain NMRI, females, by gavage, site: stomach, glandular, lesion: malignant tumor, dosed 68 weeks, study length 75 weeks
  TD50: 944 mg/kg/day
mouse, strain Swiss, females, in feed, site: all sites, lesion: leukemia, dosed 33 weeks, study length 52 weeks
  TD50: 47.6 mg/kg/day
mouse, strain Swiss, females, in feed, site: all sites, lesion: leukemia, dosed 46 weeks, study length 53 weeks
  TD50: 55.4 mg/kg/day
mouse, strain Swiss, females, in feed, site: all sites, lesion: lymphocytic leukemia, dosed 46 weeks, study length 66 weeks
  TD50: 78.3 mg/kg/day
mouse, strain Swiss, females, in feed, site: forestomach, lesion: squamous-cell papilloma, dosed 46 weeks, study length 66 weeks
  TD50: 235 mg/kg/day
mouse, strain Swiss, females, in feed, site: lung, lesion: alveolar-cell adenoma, dosed 33 weeks, study length 52 weeks
  TD50: 208 mg/kg/day
mouse, strain Swiss, females, in feed, site: lung, lesion: alveolar-cell carcinoma, dosed 46 weeks, study length 66 weeks
  TD50: 86.4 mg/kg/day
mouse, strain Swiss, females, in feed, site: lung, lesion: carcinoma, dosed 46 weeks, study length 53 weeks
  TD50: 163 mg/kg/day
mouse, strain Swiss, females, in feed, site: urinary bladder, lesion: carcinoma, dosed 33 weeks, study length 52 weeks
  TD50: 19.8 mg/kg/day
mouse, strain Swiss, females, in feed, site: urinary bladder, lesion: one or several types, types not named, dosed 46 weeks, study length 53 weeks
  TD50: 18.2 mg/kg/day
mouse, strain Swiss, females, in feed, site: urinary bladder, lesion: transitional-cell carcinoma, dosed 46 weeks, study length 66 weeks
  TD50: 7.72 mg/kg/day
rat, strain Fischer 344, males, in feed, site: urinary bladder, lesion: carcinoma, dosed 30 weeks, study length 104 weeks
  TD50: 3.18 mg/kg/day
rat, strain Fischer 344, males, in feed, site: urinary bladder, lesion: papillary carcinoma, dosed 30 weeks, study length 52 weeks
  TD50: 5.92 mg/kg/day
rat, strain Fischer 344, males, in feed, site: urinary bladder, lesion: several types, types named in the paper, dosed 30 weeks, study length 52 weeks
  TD50: 1.31 mg/kg/day
rat, strain Fischer, males, in feed, site: liver, lesion: hyperplastic nodule, dosed 36 weeks, study length 74 weeks
  TD50: 263 mg/kg/day
rat, strain Fischer, males, in feed, site: urinary bladder, lesion: carcinoma, invasive, dosed 36 weeks, study length 74 weeks
  TD50: 9.74 mg/kg/day
rat, strain Fischer, males, in feed, site: urinary bladder, lesion: carcinoma, invasive, dosed 77 weeks, study length 77 weeks
  TD50: 18.1 mg/kg/day
rat, strain Fischer, males, in feed, site: urinary bladder, lesion: carcinoma, noninvasive, dosed 36 weeks, study length 74 weeks
  TD50: 60.5 mg/kg/day
rat, strain Fischer, males, in feed, site: urinary bladder, lesion: carcinoma, noninvasive, dosed 77 weeks, study length 77 weeks
  TD50: 195 mg/kg/day
rat, strain Fischer, males, in feed, site: urinary bladder, lesion: carcinoma, dosed 36 weeks, study length 74 weeks
  TD50: 4.51 mg/kg/day
rat, strain Fischer, males, in feed, site: urinary bladder, lesion: carcinoma, dosed 72 weeks, study length 72 weeks
  carcinogen call: positive
rat, strain Fischer, males, in feed, site: urinary bladder, lesion: carcinoma, dosed 77 weeks, study length 77 weeks
  TD50: 9.87 mg/kg/day
rat, strain Sprague-Dawley, females, in feed, site: urinary bladder, lesion: papillary carcinoma, dosed 26 weeks, study length 70 weeks
  TD50: 48.6 mg/kg/day
rat, strain Sprague-Dawley, females, in feed, site: urinary bladder, lesion: papillary carcinoma, dosed 46 weeks, study length 70 weeks
  TD50: 82.7 mg/kg/day
rat, strain Sprague-Dawley, females, in feed, site: urinary bladder, lesion: several types, types named in the paper, dosed 26 weeks, study length 70 weeks
  carcinogen call: positive
rat, strain Sprague-Dawley, females, in feed, site: urinary bladder, lesion: several types, types named in the paper, dosed 46 weeks, study length 63 weeks
  TD50: 5.07 mg/kg/day
rat, strain Sprague-Dawley, females, in feed, site: urinary bladder, lesion: several types, types named in the paper, dosed 46 weeks, study length 70 weeks
  carcinogen call: positive
rat, strain Sprague-Dawley, females, in feed, site: urinary bladder, lesion: transitional-cell carcinoma, dosed 26 weeks, study length 70 weeks
  carcinogen call: positive
rat, strain Sprague-Dawley, females, in feed, site: urinary bladder, lesion: transitional-cell carcinoma, dosed 46 weeks, study length 70 weeks
  carcinogen call: positive
rat, strain Sprague-Dawley, males, in feed, site: urinary bladder, lesion: transitional-cell carcinoma, dosed 26 weeks, study length 52 weeks
  carcinogen call: positive
rat, strain Sprague-Dawley, males, in feed, site: urinary bladder, lesion: transitional-cell carcinoma, dosed 46 weeks, study length 52 weeks
  carcinogen call: positive
rat, strain Wistar, females, in feed, site: urinary bladder, lesion: transitional-cell carcinoma, dosed 34 weeks, study length 52 weeks
  carcinogen call: positive

## ClCC=CCCl
rat, strain Charles River CD (Sprague-Dawley), females, inhaled, site: nasal cavity, lesion: adenoma, dosed 51 weeks, study length 104 weeks
  TD50: 13 mg/kg/day
rat, strain Charles River CD (Sprague-Dawley), females, inhaled, site: nasal cavity, lesion: adenoma, dosed 104 weeks, study length 104 weeks
  TD50: 0.695 mg/kg/day
rat, strain Charles River CD (Sprague-Dawley), females, inhaled, site: nasal cavity, lesion: malignant tumor, dosed 51 weeks, study length 104 weeks
  TD50: 0.242 mg/kg/day
rat, strain Charles River CD (Sprague-Dawley), females, inhaled, site: nasal cavity, lesion: malignant tumor, dosed 104 weeks, study length 104 weeks
  TD50: 8.32 mg/kg/day
rat, strain Charles River CD (Sprague-Dawley), males, inhaled, site: nasal cavity, olfactory epithelium, lesion: adenocarcinoma, dosed 82 weeks, study length 104 weeks
  TD50: 2 mg/kg/day
rat, strain Charles River CD (Sprague-Dawley), males, inhaled, site: nasal cavity, olfactory epithelium, lesion: carcinoma, dosed 82 weeks, study length 104 weeks
  TD50: 8.88 mg/kg/day
rat, strain Charles River CD (Sprague-Dawley), males, inhaled, site: nasal cavity, olfactory epithelium, lesion: carcinosarcoma, dosed 82 weeks, study length 104 weeks
  TD50: 8.88 mg/kg/day
rat, strain Charles River CD (Sprague-Dawley), males, inhaled, site: nasal cavity, olfactory epithelium, lesion: malignant tumor, dosed 82 weeks, study length 104 weeks
  TD50: 1.27 mg/kg/day
rat, strain Charles River CD (Sprague-Dawley), males, inhaled, site: nasal cavity, respiratory epithelium, lesion: adenoma, dosed 82 weeks, study length 104 weeks
  TD50: 0.653 mg/kg/day
rat, strain Charles River CD (Sprague-Dawley), males, inhaled, site: nasal cavity, lesion: adenoma, dosed 51 weeks, study length 104 weeks
  TD50: 23.2 mg/kg/day
rat, strain Charles River CD (Sprague-Dawley), males, inhaled, site: nasal cavity, lesion: adenoma, dosed 104 weeks, study length 104 weeks
  TD50: 0.313 mg/kg/day
rat, strain Charles River CD (Sprague-Dawley), males, inhaled, site: nasal cavity, lesion: malignant tumor, dosed 51 weeks, study length 104 weeks
  TD50: 0.169 mg/kg/day
rat, strain Charles River CD (Sprague-Dawley), males, inhaled, site: nasal cavity, lesion: malignant tumor, dosed 104 weeks, study length 104 weeks
  TD50: 1.04 mg/kg/day
rat, strain Charles River CD (Sprague-Dawley), males, inhaled, site: nasal cavity, lesion: several types, types named in the paper, dosed 82 weeks, study length 104 weeks
  TD50: 0.467 mg/kg/day

## Cc1ncc[nH]1
mouse, strain B6C3F1, females, in feed, site: any site (literature study), lesion: several types, types named in the paper, dosed 104 weeks, study length 104 weeks
  TD50: 729 mg/kg/day
mouse, strain B6C3F1, females, in feed, site: liver, lesion: hepatocellular adenoma + hepatoblastoma + hepatocellular carcinoma, dosed 104 weeks, study length 104 weeks
  TD50: 1620 mg/kg/day
mouse, strain B6C3F1, females, in feed, site: liver, lesion: hepatocellular adenoma, dosed 104 weeks, study length 104 weeks
  TD50: 1380 mg/kg/day
mouse, strain B6C3F1, males, in feed, site: any site (literature study), lesion: several types, types named in the paper, dosed 104 weeks, study length 104 weeks
  TD50: 866 mg/kg/day
mouse, strain B6C3F1, males, in feed, site: liver + thyroid gland, lesion: hepatocellular adenoma + hepatocellular carcinoma + follicular-cell adenoma, dosed 104 weeks, study length 104 weeks
  TD50: 378 mg/kg/day
mouse, strain B6C3F1, males, in feed, site: liver, lesion: hepatocellular adenoma + hepatoblastoma + hepatocellular carcinoma, dosed 104 weeks, study length 104 weeks
  TD50: 546 mg/kg/day
mouse, strain B6C3F1, males, in feed, site: liver, lesion: hepatocellular adenoma + hepatocellular carcinoma, dosed 104 weeks, study length 104 weeks
  TD50: 546 mg/kg/day
mouse, strain B6C3F1, males, in feed, site: liver, lesion: hepatocellular adenoma, dosed 104 weeks, study length 104 weeks
  TD50: 648 mg/kg/day
mouse, strain B6C3F1, males, in feed, site: liver, lesion: hepatocellular carcinoma, dosed 104 weeks, study length 104 weeks
  TD50: 378 mg/kg/day
mouse, strain B6C3F1, males, in feed, site: thyroid gland, lesion: follicular-cell adenoma, dosed 104 weeks, study length 104 weeks
  TD50: 1810 mg/kg/day
rat, strain Fischer 344, females, in feed, site: any site (literature study), lesion: several types, types named in the paper, dosed 105 weeks, study length 105 weeks
  TD50: 131 mg/kg/day
rat, strain Fischer 344, females, in feed, site: liver, lesion: hepatocellular adenoma + hepatoblastoma + hepatocellular carcinoma, dosed 105 weeks, study length 105 weeks
  TD50: 2000 mg/kg/day
rat, strain Fischer 344, females, in feed, site: liver, lesion: hepatocellular adenoma, dosed 105 weeks, study length 105 weeks
  TD50: 2000 mg/kg/day
rat, strain Fischer 344, females, in feed, site: thyroid gland, lesion: follicular-cell adenoma + follicular-cell carcinoma, dosed 105 weeks, study length 105 weeks
  TD50: 882 mg/kg/day
rat, strain Fischer 344, females, in feed, site: thyroid gland, lesion: follicular-cell adenoma, dosed 105 weeks, study length 105 weeks
  TD50: 2100 mg/kg/day
rat, strain Fischer 344, females, in feed, site: thyroid gland, lesion: follicular-cell carcinoma, dosed 105 weeks, study length 105 weeks
  TD50: 1380 mg/kg/day
rat, strain Fischer 344, males, in feed, site: any site (literature study), lesion: several types, types named in the paper, dosed 104 weeks, study length 104 weeks
  TD50: 303 mg/kg/day
rat, strain Fischer 344, males, in feed, site: liver, lesion: hepatocellular adenoma + hepatoblastoma + hepatocellular carcinoma, dosed 104 weeks, study length 104 weeks
  TD50: 663 mg/kg/day
rat, strain Fischer 344, males, in feed, site: liver, lesion: hepatocellular adenoma + hepatocellular carcinoma, dosed 104 weeks, study length 104 weeks
  TD50: 663 mg/kg/day
rat, strain Fischer 344, males, in feed, site: pancreatic islets, lesion: islet-cell adenoma, dosed 104 weeks, study length 104 weeks
  TD50: 1010 mg/kg/day
rat, strain Fischer 344, males, in feed, site: skin, lesion: basal-cell carcinoma + keratoacanthoma + trichoepithelioma, dosed 104 weeks, study length 104 weeks
  TD50: 624 mg/kg/day
rat, strain Fischer 344, males, in feed, site: thyroid gland, lesion: follicular-cell adenoma + follicular-cell carcinoma, dosed 104 weeks, study length 104 weeks
  TD50: 854 mg/kg/day

Reference: PubChem BioAssay AID1745844 (Carcinogenic Potency Database (CPDB), 2022)
